Source: patent publication US6472384B1, “Antimicrobial compounds” (Sankyo Company, Limited, priority 1998, dated 2002)
Values after ≈ are worked out from the molar mass of the structure shown.

Key:
[1] = test system: Mycobacterium smegmatis SANK 75075; test: Disk assay against Mycobacterium smegmatis; assay type: cell-based; details: Mycolicibacterium smegmatis, SANK75075, 40 μg of test substance per paper disk of 8 mm, read-out: inhibitory zone (circle) diameter
Text: Compound A-500359E, Compound A-500359F, the amide derivative of Compound A-500359F, Compound A-500359H, Compound A-500359J and Compound A-500359M-3 of the present invention thus available are novel compounds which have not been described in the literature. Their growth inhibitory activity against general gram positive bacteria or gram negative bacteria can be determined by the disk assay method using normal agar medium (product of Eiken Chemical) or heart infusion agar medium (product of Difco Laboratories). Growth inhibitory activity against Mycobacteria, gram positive bacteria belonging to the Actinonycetales, can be determined similarly on the above-described medium added further with glycerin.
So-called disk assay was conducted using 40 μg of a test substance per paper disk of 8 mm.
So-called Disk assay (“Experimental Agricultural Chemistry”. ed. by Agricultural Chemistry Class/Agriculture Dept./Tokyo Univ., 3rd edition, Volume II, published by Asakura Shoten in 1978) was conducted using 40 μg of a test substance per paper disk of 8 mm.

[2] = Solubility (physico-chemical properties); assay type: physicochemical
[3] = test system: Mycobacterium smegmatis Strain SANK 75075; test: Minimum inhibitory concentration against Mycobacterium smegmatis (agar plate dilution); assay type: cell-based; details: Mycolicibacterium smegmatis; Mycobacterium smegmatis SANK 75075; nutrient agar containing 5% glycerol; 37° C. for 18 hours
Description: The minimum inhibitory concentration of preferred compounds of the invention against Mycobacterium smegmatis Strain SANK 75075 was determined in accordance with the process described below. The concentration of the compound to be tested was set at four stages by four-fold dilution starting from 1000 μg/ml (1000 μg/ml, 250 μg/ml, 62 μg/ml and 15 μg/ml). A 1 ml portion of the diluted sample of each stage was poured into a Petri dish (“Terumo Petri dish”, 90×20 mm). A nutrient agar medium (9 ml, product of Eiken Chemical) containing 5% glycerol was added and they were mixed to prepare a plate medium. A test microorganism Mycobacterium smegmatis SANK 75075 was precultured overnight at 37° C. on a trypto-soy broth (T.S.B) medium (product of Eiken Chemical) containing 5% glycerol. On the testing day, the microorganism solution was diluted 100-fold with T.S.B. and one loopful of the diluted culture was streaked onto the plate medium. After cultivation at 37° C. for 18 hours, the minimum concentration (MIC) of the test substance inhibiting the growth of the microorganism was determined.

[4] = test system: Mycobacterium avium Strain NIHJ1605; test: Minimum inhibitory concentration against Mycobacterium avium (broth dilution); assay type: cell-based; details: NIHJ1605, 144 h; Mycobacterium avium NIHJ 1605; Middleblook 7H9 broth; aerobic culture at 37° C. for 6 days

Solubility in chloroform [2]	Solubility in methanol [2]	Solubility in normal hexane [2]	Solubility in water [2]	MIC [3] [µg/mL]	MIC [4] [µg/mL]	Structure (SMILES)	zone of inhibition at 40 µg/disc [1] [mm]
insoluble	slightly soluble	insoluble	soluble	–	–	COC(=O)C1=CC(O)C(O)C(OC(C(N)=O)C2OC(n3ccc(=O)[nH]c3=O)C(O)C2OC)O1 (stereo not drawn) [A-500359E]	12
insoluble	slightly soluble	insoluble	soluble	–	–	COC1C(O)C(n2ccc(=O)[nH]c2=O)OC1C(OC1OC(C(=O)O)=CC(O)C1O)C(N)=O (stereo not drawn) [A-500359F]	–
insoluble	slightly soluble	insoluble	soluble	–	–	NC(=O)C(OC1OC(C(=O)O)=CC(O)C1O)C1OC(n2ccc(=O)[nH]c2=O)C(O)C1O (stereo not drawn) [A-500359H]	–
insoluble	slightly soluble	insoluble	soluble	–	–	NC(=O)C(OC1OC(C(=O)O)C(O)C(O)C1O)C1OC(n2ccc(=O)[nH]c2=O)C(O)C1O (stereo not drawn) [A-500359J]	–
–	–	–	–	3.1 (≈ 4.28 µM)	–	CCCCCCCCC(=O)O[C@@H]1[C@H](OC)[C@@H]([C@@H](O[C@H]2OC(C(=O)N[C@H]3CCC[C@@H](C)NC3=O)=C[C@H](O)[C@@H]2O)C(N)=O)O[C@H]1n1ccc(=O)[nH]c1=O [Exemp. Compound No. 6]	–
–	–	–	–	6.2 (≈ 8.4 µM)	–	CCCCCCCCCC(=O)O[C@@H]1[C@H](OC)[C@@H]([C@@H](O[C@H]2OC(C(=O)N[C@H]3CCC[C@@H](C)NC3=O)=C[C@H](O)[C@@H]2O)C(N)=O)O[C@H]1n1ccc(=O)[nH]c1=O [Exemp. Compound No. 7]	–
–	–	–	–	6.2 (≈ 7.83 µM)	–	CO[C@H]1[C@@H](OC(=O)CC(c2ccccc2)c2ccccc2)[C@H](n2ccc(=O)[nH]c2=O)O[C@@H]1[C@@H](O[C@H]1OC(C(=O)N[C@H]2CCC[C@@H](C)NC2=O)=C[C@H](O)[C@@H]1O)C(N)=O [Exemp. Compound No. 21]	–
–	–	–	–	1.5 (≈ 1.86 µM)	–	CCCCCCCCCCCCCCCC(=O)O[C@H]1C=C(C(=O)N[C@H]2CCCCNC2=O)O[C@H](O[C@@H](C(N)=O)[C@H]2O[C@@H](n3ccc(=O)[nH]c3=O)[C@H](O)[C@@H]2OC)[C@H]1O [Exemp. Compound No. 135]	–

More lines, now with the values behind:

Structure (SMILES)	Solubility in chloroform [2]	Solubility in methanol [2]	Solubility in normal hexane [2]	Solubility in water [2]	MIC [3] [µg/mL]	MIC [4] [µg/mL]	zone of inhibition at 40 µg/disc [1] [mm]
C=CCC(NC(=O)C1=CC(O)C(O)C(OC(C(N)=O)C2OC(n3ccc(=O)[nH]c3=O)C(O)C2OC)O1)C(=O)O (stereo not drawn) [A-500359M-3]	insoluble	soluble	insoluble	soluble	–	–	12
CO[C@H]1[C@@H](O)[C@H](n2ccc(=O)[nH]c2=O)O[C@@H]1[C@@H](O[C@H]1OC(C(=O)N[C@H]2CCCCNC2=O)=C[C@H](O)[C@@H]1O)C(N)=O [Capuramycin, capuramycin, reference compound]	–	–	–	–	12.5 (≈ 21.9 µM)	8 (≈ 14 µM)	–
CCCCCCCCCCCCCCCC(=O)O[C@@H]1[C@H](OC)[C@@H]([C@@H](O[C@H]2OC(C(=O)N[C@H]3CCC[C@@H](C)NC3=O)=C[C@H](O)[C@@H]2O)C(N)=O)O[C@H]1n1ccc(=O)[nH]c1=O [Exemp. Compound No. 11]	–	–	–	–	6.2 (≈ 7.54 µM)	–	–
CCCCCCCCCCCCCCCC(=O)O[C@@H]1[C@H](OC)[C@@H]([C@@H](O[C@H]2OC(C(=O)N[C@H]3CCCCNC3=O)=C[C@H](O)[C@@H]2O)C(N)=O)O[C@H]1n1ccc(=O)[nH]c1=O [Exemp. Compound No. 53]	–	–	–	–	6.2 (≈ 7.67 µM)	–	–
CCCCCCC(=O)O[C@@H]1[C@@H](O[C@@H](C(N)=O)[C@H]2O[C@@H](n3ccc(=O)[nH]c3=O)[C@H](O)[C@@H]2OC)OC(C(=O)N[C@H]2CCCCNC2=O)=C[C@@H]1OC(=O)CCCCCC [Exemp. Compound No. 280]	–	–	–	–	3.1 (≈ 3.9 µM)	–	–
COC1C(O)C(n2ccc(=O)[nH]c2=O)OC1C(OC1OC(C(N)=O)=CC(O)C1O)C(N)=O (stereo not drawn) [amide derivative of compound A-500359F]	insoluble	slightly soluble	insoluble	soluble	–	–	12
